Results from paper PMC12221116, “Novel Quinazolinones Active against Multidrug‐Resistant Mycobacterium Tuberculosis: Synthesis, Antimicrobial Evaluation, and in Silico Exploration of Penicillin‐Binding Protein 1A as a Potential Target” (Chemmedchem, 2025).
Converted amounts (≈) assume the structure as drawn. Where two headings read alike, the source gives them in different places.

Tests used:
Experiment in all cases: microbe, parasite or virus in culture
Assay type in all cases: cell-based, Mycobacterium tuberculosis
Mtb IZAK [1] = details: for MIC: Mycobacterium tuberculosis, read-out: MIC Mtb IZAK
Mtb MATI [2] = details: for MIC: Mycobacterium tuberculosis, read-out: MIC Mtb MATI
Mtb SORO [3] = details: for MIC: Mycobacterium tuberculosis, read-out: MIC Mtb SORO
Mtb TIAS [4] = details: for MIC: Mycobacterium tuberculosis, read-out: MIC Mtb TIAS
Mtb YAGY [5] = details: for MIC: Mycobacterium tuberculosis, read-out: MIC Mtb YAGY
Mtb TURZ [6] = details: for MIC: Mycobacterium tuberculosis, read-out: MIC Mtb TURZ
Mtb SORO [7] = details: for Susceptible/resistant Mtb SORO: CLSI methodology; for MIC: Mycobacterium tuberculosis, read-out: MIC, susceptibility pattern Mtb SORO
Mtb IZAK [8] = details: for Susceptible/resistant Mtb IZAK: CLSI methodology; for MIC: Mycobacterium tuberculosis, read-out: MIC, susceptibility pattern Mtb IZAK
Mtb MATI [9] = details: for Susceptible/resistant Mtb MATI: CLSI methodology; for MIC: Mycobacterium tuberculosis, read-out: MIC, susceptibility pattern Mtb MATI
Mtb TIAS [10] = details: for Susceptible/resistant Mtb TIAS: CLSI methodology; for MIC: Mycobacterium tuberculosis, read-out: MIC, susceptibility pattern Mtb TIAS
Mtb YAGY [11] = details: for Susceptible/resistant Mtb YAGY: CLSI methodology; for MIC: Mycobacterium tuberculosis, read-out: MIC, susceptibility pattern Mtb YAGY
Mtb TURZ [12] = details: for Susceptible/resistant Mtb TURZ: CLSI methodology; for MIC: Mycobacterium tuberculosis, read-out: MIC, susceptibility pattern Mtb TURZ
[13] = drug-resistant clinical isolate
[14] = mycobacteria growth indicator tube (MGIT), concentration 100 mg/l

| Compound | MIC (Mtb IZAK [1]) [µg/mL] | MIC (Mtb MATI [2]) [µg/mL] | MIC (Mtb SORO [3]) [µg/mL] | MIC (Mtb TIAS [4]) [µg/mL] | MIC (Mtb YAGY [5]) [µg/mL] | MIC (Mtb TURZ [6]) [µg/mL] | Susceptible/resistant Mtb SORO (Mtb SORO [7]) | MIC (Mtb SORO [7]) [µg/mL] | Susceptible/resistant Mtb IZAK (Mtb IZAK [8]) | MIC (Mtb IZAK [8]) [µg/mL] | Susceptible/resistant Mtb MATI (Mtb MATI [9]) | MIC (Mtb MATI [9]) [µg/mL] | Susceptible/resistant Mtb TIAS (Mtb TIAS [10]) | MIC (Mtb TIAS [10]) [µg/mL] | Susceptible/resistant Mtb YAGY (Mtb YAGY [11]) | MIC (Mtb YAGY [11]) [µg/mL] | Susceptible/resistant Mtb TURZ (Mtb TURZ [12]) | MIC (Mtb TURZ [12]) [µg/mL] | further results |
| --- | --- | --- | --- | --- | --- | --- | --- | --- | --- | --- | --- | --- | --- | --- | --- | --- | --- | --- | --- |
| Cc1nc2cc(Cl)ccc2c(=O)n1Cc1ccc(Cl)c(Cl)c1 [Compound 24] | > 100 | > 100 | 100 (≈ 283 µM) | 6.25 (≈ 17.7 µM) | 6.25 (≈ 17.7 µM) | 6.25 (≈ 17.7 µM) | – | – | – | – | – | – | – | – | – | – | – | – | – |
| Cc1nc2cc(Cl)ccc2c(=O)n1/N=C/c1ccc(O)c([N+](=O)[O-])c1 [Compound 25] | > 25 | 12.5 (≈ 34.8 µM) | 12.5 (≈ 34.8 µM) | 25 (≈ 69.7 µM) | 6.25 (≈ 17.4 µM) | 25 (≈ 69.7 µM) | – | – | – | – | – | – | – | – | – | – | – | – | – |
| CC(C)/N=c1\cc2n(-c3ccc(Cl)cc3)c3ccccc3nc-2cc1Nc1ccc(Cl)cc1 [clofazimine] | – | – | – | – | – | – | S | 0.25 (≈ 0.528 µM) | – | – | – | – | – | – | – | – | – | – | – |
| CO[C@H]1/C=C/O[C@@]2(C)Oc3c(C)c(O)c4c(O)c(c(/C=N/N5CCN(C)CC5)c(O)c4c3C2=O)NC(=O)/C(C)=C\C=C\[C@H](C)[C@H](O)[C@@H](C)[C@@H](O)[C@@H](C)[C@H](OC(C)=O)[C@@H]1C [RIF, rifampicin] | – | – | – | – | – | – | S | 0.125 (≈ 0.152 µM) | R | > 8 | R | > 8 | S | 0.125 (≈ 0.152 µM) | R | 8 (≈ 9.72 µM) | R | > 8 | – |
| COc1ccc(Cn2c(C)nc3cc(Cl)ccc3c2=O)cc1 [Compound 17] | 12.5 (≈ 39.7 µM) | 12.5 (≈ 39.7 µM) | 12.5 (≈ 39.7 µM) | 12.5 (≈ 39.7 µM) | 12.5 (≈ 39.7 µM) | 12.5 (≈ 39.7 µM) | – | – | – | – | – | – | – | – | – | – | – | – | – |
| Cc1nc2ccccc2c(=O)n1Cc1cccc(Cl)c1 [Compound 6] | – | – | – | – | – | – | – | – | – | – | – | – | – | – | – | – | – | – | MIC Mtb IZAK (Mtb IZAK [1]; [13]): >100 µg/mL; MIC Mtb MATI (Mtb MATI [2]; [13]): 50 µg/mL (≈ 176 µM); MIC Mtb SORO (Mtb SORO [3]; [13]): 25 µg/mL (≈ 87.8 µM); MIC Mtb TIAS (Mtb TIAS [4]; [13]): 25 µg/mL (≈ 87.8 µM); MIC Mtb YAGY (Mtb YAGY [5]; [13]): 12.5 µg/mL (≈ 43.9 µM); MIC Mtb TURZ (Mtb TURZ [6]; [13]): 25 µg/mL (≈ 87.8 µM) |
| [H]/N=C(/N)N[C@H]1[C@H](O)[C@@H](O)[C@H](O[C@@H]2O[C@@H](C)[C@](O)(C=O)[C@H]2O[C@@H]2O[C@@H](CO)[C@H](O)[C@@H](O)[C@@H]2NC)[C@@H](N/C(N)=N\[H])[C@@H]1O [streptomycin] | – | – | – | – | – | – | R | 4 (≈ 6.88 µM) | R | 4 (≈ 6.88 µM) | R | > 16 | R | 4 (≈ 6.88 µM) | R | > 16 | R | 16 (≈ 27.5 µM) | – |
| COc1c(N2C[C@@H]3CCCN[C@@H]3C2)c(F)cc2c(=O)c(C(=O)O)cn(C3CC3)c12 [moxifloxacin] | – | – | – | – | – | – | S | 0.25 (≈ 0.623 µM) | – | – | – | – | S | 0.25 (≈ 0.623 µM) | S | 0.25 (≈ 0.623 µM) | S | 0.25 (≈ 0.623 µM) | – |
| NCC[C@H](O)C(=O)N[C@@H]1C[C@H](N)[C@@H](O[C@H]2O[C@H](CN)[C@@H](O)[C@H](O)[C@H]2O)[C@H](O)[C@H]1O[C@H]1O[C@H](CO)[C@@H](O)[C@H](N)[C@H]1O [amikacin] | – | – | – | – | – | – | S | 1 (≈ 1.71 µM) | – | – | – | – | S | 1 (≈ 1.71 µM) | R | > 64 | S | 0.5 (≈ 0.854 µM) | – |
| Cc1nc2cc(Cl)ccc2c(=O)n1Cc1cccc(Cl)c1 [Compound 21] | > 100 | > 100 | > 100 | 12.5 (≈ 39.2 µM) | 12.5 (≈ 39.2 µM) | 12.5 (≈ 39.2 µM) | – | – | – | – | – | – | – | – | – | – | – | – | – |
| NC(=O)c1cnccn1 [pyrazinamide] | – | – | – | – | – | – | – | – | R | > 16 | R | > 128 | – | – | – | – | – | – | Susceptible/resistant Mtb SORO (MGIT) (Mtb SORO [7]; [14]): S ^b); Susceptible/resistant Mtb TIAS (MGIT) (Mtb TIAS [10]; [14]): S ^b); Susceptible/resistant Mtb YAGY (MGIT) (Mtb YAGY [11]; [14]): R ^b); Susceptible/resistant Mtb TURZ (MGIT) (Mtb TURZ [12]; [14]): S ^b) |
| Cc1nc2cc(Cl)ccc2c(=O)n1Cc1ccc(F)cc1 [Compound 19] | > 50 | > 50 | > 50 | 12.5 (≈ 41.3 µM) | 12.5 (≈ 41.3 µM) | 12.5 (≈ 41.3 µM) | – | – | – | – | – | – | – | – | – | – | – | – | – |
| NNC(=O)c1ccncc1 [INH, isoniazid, reference compound] | > 100 | > 100 | > 100 | > 100 | > 100 | > 100 | R | 4 (≈ 29.2 µM) | R | 4 (≈ 29.2 µM) | R | > 8 | R | > 8 | R | 4 (≈ 29.2 µM) | R | > 8 | – |
| CC[C@@H](CO)NCCN[C@@H](CC)CO [ethambutol] | – | – | – | – | – | – | R | 2 (≈ 9.79 µM) | S | 0.5 (≈ 2.45 µM) | S | 0.5 (≈ 2.45 µM) | R | 1 (≈ 4.89 µM) | R | 4 (≈ 19.6 µM) | R | 1 (≈ 4.89 µM) | – |
